One data set deals with P. falciparum K1. In words: In vitro inhibition of P. falciparum K1 (SYBR Green I-based fluorescence assay). The format is cell-based. The following applies: Plasmodium falciparum, read-out: IC50 P. falciparum K1. The protocol: (§1) The cultures were maintained in an incubator under specific conditions: 37 °C under 5% CO2 and 5% O2.
(§2) The D-sorbitol method (CAS: 50-70-4, Wako, Osaka, Japan) was employed to synchronize parasites, resulting in the attainment of ≥90% ring-stage parasites. These synchronized parasites were then utilized for the experiments within a 2-h window. The assay was performed as follows. First, 50 μL of synchronized parasites with 0.5% parasitemia and 2% hematocrit were added to individual wells of a 96-well plate. Then, 50 μL of the test compounds was introduced to each well. […] Wells containing only test compounds and erythrocytes were included for background correction. […] After the designated incubation time, 100 μL of lysis buffer containing 0.02% (v/v) SYBR Green I was added to each well, the contents of the well were mixed by pipetting, and the plate was incubated in the dark at room temperature for 2 h. […] This assay was repeated four times at each concentration, and the resulting inhibitory values represent the average from three independent trials.
(§3) The IC50 or CC50 values were determined from three independent experiments by plotting the logarithmic concentration of the compound against the percent parasite inhibition or cell growth inhibition, respectively. Nonlinear regression analysis was conducted using GraphPad Prism 10 (GraphPad Software, Inc., La Jolla, CA, USA). Comparisons between groups were evaluated using either one-way or two-way ANOVA followed by Tukey's or Fisher's multiple comparisons tests. […] The meaning of each symbol is specified in the corresponding figure legend alongside the name of the employed test.

Data set [1] in a line: In vitro toxicity to human cells (cell viability assay). The format is cell-based. As to conditions: human foreskin fibroblasts (HFFs), average ± SD, three independent experiments. The protocol:
HFF cells are selected for cytotoxicity testing in this study, providing a physiologically relevant model for the evaluation of drug interactions with human cells. […] This designation makes them a suitable model for the investigation of cellular processes and their sensitivity to toxic substances, which is crucial for the early identification of potential adverse effects of drugs during the development process.
The IC50 or CC50 values were determined from three independent experiments by plotting the logarithmic concentration of the compound against the percent parasite inhibition or cell growth inhibition, respectively. Nonlinear regression analysis was conducted using GraphPad Prism 10 (GraphPad Software, Inc., La Jolla, CA, USA). Comparisons between groups were evaluated using either one-way or two-way ANOVA followed by Tukey's or Fisher's multiple comparisons tests. A p-value of <0.05 was considered to indicate statistical significance and is denoted by an asterisk or a symbol. The meaning of each symbol is specified in the corresponding figure legend alongside the name of the employed test.

The subject of data set [2] is P. falciparum 3D7. Description: IC50 speed assay (24, 48, 72 h). Type of data set: cell-based, Plasmodium falciparum. The following applies: for Speed of action (IC50 speed assay): IC50 at 24, 48, 72 h compared; for IC50: Plasmodium falciparum. As for the experimental part:
as §2

For data set [3], the system named is P. falciparum 3D7. Description: Stage-specific assay on ring and schizont stages (SYBR Green I, 24 h). The following applies: eight concentrations from 100-fold IC50. Type of data set: cell-based, Plasmodium falciparum. As for the experimental part: (§4) To ensure uniformity, the parasites underwent a rigorous synchronization process using a two-step sorbitol treatment procedure. This synchronized parasite population was harnessed within a 2-h window for the ring stage, 8–10 h for the trophozoite stage, and 24–26 h for the schizont stage. Subsequent to sorbitol treatment, early trophozoites could be obtained within 6–8 h after the initial sorbitol treatment (within 20 h of development), while early schizonts could be obtained after an additional 16 h of incubation (within 36 h of development). Beyond 36 h, the schizonts mature, causing the rupture of red blood cells (RBCs) and the consequent release of merozoites, which promptly infect new RBCs.
Wells containing only the test compounds and erythrocytes were included to correct for background activity. The 96-well plates were incubated for 24 h at 37 °C in an atmosphere of 5% CO2 and 5% O2. The growth of P. falciparum 3D7 was detected using a SYBR Green I-based fluorescence assay.

The test system of data set [4] is P. falciparum 3D7. Description: Stage-specific microscopy examination (ring, trophozoite, schizont). Type of data set: cell-based, Plasmodium falciparum. As to conditions: ring, trophozoite, schizont stages, artemisinin and chloroquine at all concentrations, Compounds 31 and 32 at 100 times IC50. The protocol: as §4
The negative control group consisted of cultures treated solely with complete medium and was designated the no treatment (NT) group. This analysis was repeated three times at each concentration. Following a 24-h incubation period, the culture in a 96-well plate was centrifuged at 1300 g for 5 min to settle down the iRBC; then, the supernatants were removed, and the iRBCs were washed with fresh media at the same volume as the initial culture. The centrifugation and washing were repeated 3 times, allowing the compound to be diluted by approximately 1000 times. Subsequently, thin blood smears from each treatment group were prepared using 1 μL of settled iRBCs. The proportion of parasites affected by the drug, including those with both abnormal and retained morphologies, was calculated by examining 100 parasites and counting the number displaying irregular development. Subsequently, the number of abnormal parasites was divided by the total count and then multiplied by 100 to obtain a percentage. The parameters used to define normal and abnormal morphologies can be found in Table S3 and Fig. S1.

Data set [5] concerns P. falciparum 3D7. In words: In vitro inhibition of P. falciparum 3D7 (SYBR Green I-based fluorescence assay). The format is cell-based, Plasmodium falciparum. More on the design: logIC50: unit not given here. The following applies: for IC50: Plasmodium falciparum; for logIC50: base-10 log-transformed IC50 against P. falciparum 3D7. As for the experimental part:
as §1, §2, §3

The test system of another data set is P. yoelii 17XNL. Type of data set: in vivo. As to conditions: P. yoelii 17XNL-infected mice; 20 mg/kg/day. As for the experimental part:
Male C57BL/6 mice, aged eight weeks, were obtained from Japan CLEA (Tokyo, Japan) and housed with six per cage in each group. These mice were kept under conditions of 24 °C, 50% relative humidity, and a light-dark cycle of 8 a.m. to 8 p.m. Access to drinking water and food (CLEA Rodent Diet CE-2; Japan CLEA, Tokyo, Japan) was unrestricted. Prior to experimentation, P. yoelii 17XNL was recovered from cryopreserved erythrocyte stocks via passage in mice. […]. Parasitemia levels were evaluated […] by collecting 2 μL of blood from the mouse tail for thin blood smear preparation. Treatment was initiated upon reaching a parasitemia level of 1%. […]. Parasitemia in infected mice was observed daily by preparing Giemsa-stained thin blood smears (up to 30 dpi). Hematocrit levels were measured every other day using a Celltac-α MEK-6550 (Nihon Kohden, Tokyo, Japan), with 10 μL of blood collected from the mouse tail for each assessment. The animals were handled and treated in accordance with the Guide for the Care and Use of Laboratory Animals by the Ministry of Education, Culture, Sports, Science, and Technology, Japan. Ethical permission for the animal experiment protocols was secured under permit numbers 21–35 and 23–90 from the ethical committee of Obihiro University of Agriculture and Veterinary Medicine.
The median point within this range was selected to maintain a balance between efficacy and safety. Furthermore, a modified Peter's suppression test was utilized to assess the efficacy of antimalarial drugs ([Ager, 1984]; [Peters et al., 1975]). The treatment and observation period were initially set for 4 days. […] […]. […] These findings highlight the effect of the 20 mg/kg/day dosage of Compounds 31 and 32 in reducing parasitemia without causing side effects.

The mark [6] stands for this setting: multidrug-resistant strain K1, 72 h incubation, average ± SD, three independent experiments.
[7] abbreviates: Table S2, P. falciparum 3D7, value used for SAR analysis, read-out: IC50.
Setting [8] is: chloroquine-sensitive strain 3D7, 72 h incubation, average ± SD, three independent experiments, read-out: IC50 P. falciparum 3D7.

Like-named read-outs stand apart in the source and are kept apart here.

These results are taken from article PMC11067372, “Evaluation of the antiplasmodial efficacy of synthetic 2,5-diphenyloxazole analogs of compounds naturally derived from Oxytropis lanata” (International Journal for Parasitology: Drugs and Drug …, 2024).

As usually defined, the IC50 is the concentration at which inhibition is half-maximal. Usually CC50 stands for the concentration that lowers cell viability or growth by half. As for `C[C@@H]1CC[C@H]2[C@@H](C)C(=O)O[C@@H]3O[C@@]4(C)CC[C@@H]1[C@]32OO4` [Artemisinin, artemisinin, reference compound], the IC50 was found to be 0.019 ± 0.002 µM in the data set with P. falciparum K1 (setting [6]); 0.037 ± 0.005 µM in the data set with P. falciparum 3D7 [2] (P. falciparum 3D7, 24 h incubation, read-out: IC50 24 h); 0.023 ± 0.002 µM in the data set on P. falciparum 3D7 [2] (P. falciparum 3D7, 48 h incubation, read-out: IC50 48 h). The 50% cytotoxic concentration (CC50) in data set [1] stood at 153 ± 30.8 µM. Also, the “Speed of action (IC50 speed assay)” value in the data set on P. falciparum 3D7 [2] (P. falciparum 3D7) is reported as “fast-acting”. For the same compound, the “Stage specificity (ring and schizont stages)” value in the data set with P. falciparum 3D7 [3] was “potency against ring and schizont stages”. Moreover, the “Parasite morphology after 24 h treatment” value in the data set on P. falciparum 3D7 [4] is “death and shrinkage of the parasite at all stages”.

For the compound `CCN(CC)CCCC(C)Nc1ccnc2cc(Cl)ccc12` (stereo not drawn) [Chloroquine (diphosphate), chloroquine diphosphate, reference compound], the IC50 in the data set on P. falciparum 3D7 [5] (3D7, 72 h, read-out: IC50 P. falciparum 3D7) came to 0.026 ± 0.003 µM; in the data set with P. falciparum K1 (K1, 72 h), 0.784 ± 0.073 µM; in the data set on P. falciparum 3D7 [2] (3D7, 24 h, read-out: IC50 24 h) it was 0.046 ± 0.003 µM; in the data set on P. falciparum 3D7 [2] (3D7, 48 h, read-out: IC50 48 h) it was 0.022 ± 0.004 µM; with P. falciparum 3D7 [2] (3D7, 72 h, read-out: IC50 72 h), 0.026 ± 0.004 µM. Further, in the data set on P. falciparum 3D7 [2] (P. falciparum 3D7), the “Speed of action (IC50 speed assay)” value is “fast-acting”. For the same compound, the “Stage specificity (ring and schizont stages)” value in the data set on P. falciparum 3D7 [3] is “potency against ring and schizont stages”. Moreover, the “Parasite morphology after 24 h treatment” value in the data set on P. falciparum 3D7 [4] was “death and shrinkage of the parasite at all stages”. Moreover, in the data set on P. yoelii 17XNL, the “Treatment duration required to decrease the parasitemia levels from the peak of infection” value stood at 7 days.

For `Oc1ccccc1-c1cnc(-c2cccc(O)c2O)s1` [Compound 40], the figures for the half-inhibitory concentration (IC50) in the data set on P. falciparum 3D7 [5] (setting [7]), in the data set on P. falciparum 3D7 [5] (setting [8]) and in the data set with P. falciparum K1 (setting [6]) were 3.95 µM, 3.95 ± 1.38 µM and 1.74 ± 0.89 µM, respectively. In the data set on P. falciparum 3D7 [5] (Table S2), this compound registered a logIC50 of 0.597. The compound further came in with a CC50 in data set [1] of 46.3 ± 5.84 µM.

For the compound `Oc1ccccc1-c1nnc(-c2cccc(O)c2O)o1` [Compound 42], the IC50 is 9.53 µM in the data set on P. falciparum 3D7 [5] (setting [7]), 9.53 ± 3.15 µM in the data set on P. falciparum 3D7 [5] (setting [8]) and 6.19 ± 2.66 µM with P. falciparum K1 (setting [6]). The logIC50 in the data set with P. falciparum 3D7 [5] (Table S2) worked out at 0.9793. Also, the half-maximal cytotoxic concentration (CC50) in data set [1] came to 52.5 ± 13.2 µM.

Turning to `Oc1ccccc1-c1nnc(-c2cccc(O)c2O)s1` [Compound 44], the IC50 was determined as 6.41 µM with P. falciparum 3D7 [5] (setting [7]), 6.41 ± 1.16 µM in the data set on P. falciparum 3D7 [5] (setting [8]) and 3.91 ± 1.45 µM with P. falciparum K1 (setting [6]). In the data set with P. falciparum 3D7 [5] (Table S2), the logIC50 was found to be 0.8066. This compound showed a CC50 in data set [1] of 160 ± 62.3 µM.

For `Oc1ccccc1-c1coc(-c2cccc(O)c2O)n1` [Compound 47], the half-maximal inhibitory concentration (IC50) with P. falciparum 3D7 [5] (setting [7]) was 4.63 µM; in the data set on P. falciparum 3D7 [5] (setting [8]), 4.63 ± 1.18 µM; in the data set with P. falciparum K1 (setting [6]), 3.13 ± 1.21 µM. This compound also displayed a logIC50 with P. falciparum 3D7 [5] (Table S2) of 0.6658. Further, in data set [1], the half-maximal cytotoxic concentration (CC50) worked out at 71 ± 23.1 µM.
